Here are results for 1 compound from publication PMC11139994, “Inflammation causes insulin resistance in mice via interferon regulatory factor 3 (IRF3)-mediated reduction in FAHFA levels” (Nature Communications, 2024).

The target of assay [1] is T1, AIG1 (androgen induced gene 1) (Mus musculus, UniProt Q9D8B1).
T1 construct: endogenous AIG1 in mouse brain membrane proteome
T1 sequence (Q9D8B1 1-238): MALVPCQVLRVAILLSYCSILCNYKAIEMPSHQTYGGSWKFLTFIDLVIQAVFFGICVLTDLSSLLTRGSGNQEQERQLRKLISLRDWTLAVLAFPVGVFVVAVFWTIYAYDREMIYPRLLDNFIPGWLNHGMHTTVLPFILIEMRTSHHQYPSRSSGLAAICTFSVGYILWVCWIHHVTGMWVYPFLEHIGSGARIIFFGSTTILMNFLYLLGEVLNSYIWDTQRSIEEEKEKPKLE
The assay is described as follows: competitive gel-based ABPP (FP-Rh) in mouse brain membrane proteome; also MS-based ABPP and in vivo target engagement. Format: biochemical.

Assay [2] deals with T2, ABHD6 (Mus musculus, UniProt Q8R2Y0).
T2 construct: endogenous ABHD6 in mouse brain proteome
T2 sequence (Q8R2Y0 1-336): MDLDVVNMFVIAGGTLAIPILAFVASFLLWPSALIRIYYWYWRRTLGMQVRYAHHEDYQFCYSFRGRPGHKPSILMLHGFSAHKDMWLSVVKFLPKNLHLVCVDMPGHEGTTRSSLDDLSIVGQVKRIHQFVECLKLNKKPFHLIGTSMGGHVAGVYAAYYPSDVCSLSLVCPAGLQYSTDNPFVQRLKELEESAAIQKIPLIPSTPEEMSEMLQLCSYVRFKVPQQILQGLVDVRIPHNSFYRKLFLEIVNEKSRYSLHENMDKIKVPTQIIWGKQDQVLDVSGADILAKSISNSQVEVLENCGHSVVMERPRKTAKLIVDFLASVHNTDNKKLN
The experiment in a line: competitive MS-based ABPP-ReDiMe (FP-biotin) in mouse brain proteome (off-target). Format: cell-based.

Molecules are shown by their SMILES.

Take `CN(c1ccn(C(=O)N2CCc3ccc(Oc4ccccc4)cc3C2)n1)S(C)(=O)=O` [ABD-110, N-methyl-N-(1-(7-phenoxy-1,2,3,4-tetrahydroisoquinoline-2-carbonyl)-1H-pyrazol-3-yl)methanesulfonamide]: the IC50 (in general, the midpoint of a concentration-inhibition curve) in assay [1] came out at 1.6 nM. In assay [2], the “competitive MS-based ABPP-ReDiMe (FP-biotin) in mouse brain proteome (off-target)” value was “with only a few off-targets detected, including ABHD6 and several highly homologous, mouse-specific carboxylesterases (CESs)”.
